According to patent US5455348A, “2-pyrrolidinones, pharmaceutical compositions containing these compounds and processes for preparing them” (Thomae; Karl, priority 1991, dated 1995):
Structures can show the parent of a compound that is named as a salt. Where two headings read alike, the source gives them in different places.

Columns and labels:
[1] = test system: collagen-induced thrombocyte aggregation in platelet-rich plasma; test: Collagen-induced platelet aggregation in platelet-rich plasma (Born and Cross method); format: cell-based, healthy volunteers (human); details: read-out: Inhibition of platelet aggregation EC50
Description: The thrombocyte aggregation is measured using the Born and Cross method (J. Physiol. 170: 397 (1964)) in platelet-rich plasma taken from healthy volunteers. To inhibit coagulation the blood is mixed with 3.14% sodium citrate in a ratio by volume of 1:10.
Collagen-induced aggregation
The pattern of the decrease in optical density of the platelet suspension is photometrically measured and recorded after the addition of aggregation-triggering substance. The rate of aggregation is concluded from the angle of inclination of the density curve. The point on the curve where there is maximum light transmittance is used to calculate the optical density.
The amount of collagen used is as small as possible but sufficient to produce an irreversible reaction curve. Standard commercial collagen produced by Hormonchemie of Munich is used. Before the addition of the collagen the plasma is incubated for 10 minutes with the substance at 37° C.
From the measurements obtained an EC50 is determined graphically, indicating a 50% change in the optical density in terms of the inhibition of aggregation.

[2] = target: fibrinogen binding to human thrombocytes; test: Fibrinogen binding to human thrombocytes; details: gel-filtered human platelets, 125I fibrinogen, ADP, 20 minutes, ambient temperature; read-out: Fibrinogen-binding test IC50
Description: The blood obtained by puncturing an antecubital vein is anticoagulated with trisodium citrate (final concentration: 13 mM) and centrifuged for 10 minutes at 170×g. The supernatant platelet-rich plasma is poured onto a Sepharose 2B column (Pharmacia) and eluted with a solution of 90 mM common salt, 14 mM trisodium citrate, 5 mM glucose and 50 mM Tris(hydroxymethyl)aminomethane, adjusted to pH 7.4. The gel-filtered platelets (GFP) appearing before the plasma proteins are used for the binding experiments.
50 μl of a 60 mM calcium chloride solution, 50 μl of a 0.6 mM adenosine diphosphate solution, 100 μl of substance solution or solvent and 50 μl of fibrinogen solution (containing 3 μg of ^125 I fibrinogen) are added to 750 μl of GFP and incubated for 20 minutes at ambient temperature. The non-specific binding is determined in the presence of 3 mg/ml of cold fibrinogen.
900 μl of the incubated material are carefully pipetted onto 250 μl of silicon oil (AP 38: AR 20, 1:2 v/v, Wacker Chemie) in Eppendorf tubes and centrifuged for 2 minutes at 10,000×g. The aqueous supernatant and some of the oil are drawn off, the tips of the tubes are cut off together with the platelet pellet and the quantity of bound fibrinogen is determined in a gamma counter. The concentration of substance which brings about a 50% inhibition in fibrinogen binding is determined from a series of concentrations and is given as the IC50 value.

[3] = test system: collagen-induced thrombocyte aggregation; test: Inhibition of collagen-induced thrombocyte aggregation ex vivo after oral administration; format: in vivo; details: Rhesus monkeys, oral administration of 1 mg/kg
Description: Moreover, the compound of Example 5, for example, inhibits the collagen-induced thrombocyte aggregation ex vivo in Rhesus monkeys for more than 8 hours after oral administration of 1 mg/kg.

[4] = Tolerance after intravenous administration; format: in vivo; details: intravenous administration of 30 mg/kg to three mice
[5] = collagen-induced, human platelet-rich plasma, 10 minutes preincubation at 37° C.

SMILES | EC50 [1, 5] [µM] | IC50 [2] [µM] | inhibits the collagen-induced thrombocyte aggregation ex vivo for (duration) [3] | animals died [4] | EC50 ([1]; Homo sapiens, Platelet) [µM]
COC(=O)C[C@@H]1C[C@@H](COc2ccc(-c3ccc(C(=N)NC(=O)OC)cn3)cc2)NC1=O [Example 5, (3S,5S)-5-[[4-[5-(N-Methoxycarbonylamidino)-2-pyridyl]phenyl]oxymethyl]-3-[(methoxycarbonyl)methyl]-2-pyrrolidinone] | – | – | more than 8 hours | – | –
N=C(N)c1cnc(-c2ccc(OC[C@@H]3C[C@@H](CC(=O)O)C(=O)N3)cc2)s1 [Example 1(3), (3S,5S)-5-[[4-(5-amidino-2-thiazolyl)phenyl]oxymethyl]-3-carboxymethyl-2-pyrrolidinone×0.6 H2 O] | 0.1 | 0.042 | – | – | –
N=C(N)c1ccc(-c2ccc(OC[C@@H]3C[C@@H](CC(=O)O)CN3c3ncccn3)cc2)cc1 [Example 4(2), (3S,5S)-5-[(4'-amidino-4-biphenylyl)oxymethyl]-3-carboxymethyl-1-(2-pyrimidyl)-pyrrolidine×0.25 HCl×0.4 H2 O] | 0.54 | 0.2 | – | – | –
N=C(N)c1ccc(-c2ccc(OC[C@@H]3C[C@@H](CC(=O)O)CN3C(=O)c3cccnc3)cc2)cc1 [Example 4(4), (3S,5S)-5-[(4'-amidino-4-biphenylyl)oxymethyl]-3-carboxymethyl-1-nicotinoyl-pyrrolidine] | 0.21 | 0.14 | – | – | –
Nc1nccc2cc(-c3ccc(OC[C@@H]4C[C@@H](CC(=O)O)C(=O)N4)cc3)ccc12 [Example 4(3), (3S,5S)-5-[[4-(1-amino-6-isoquinolinyl)phenyl]oxymethyl]-3-carboxymethyl-2-pyrrolidinone-hydrochloride] | 38 | 0.16 | – | – | –
N=C(N)c1ccc(-c2ccc(OC[C@@H]3C[C@@H](CC(=O)O)C(=O)N3)cc2)nc1 [Example 1, (3S,5S)-5-[[4-(5-amidino-2-pyridyl)phenyl]oxymethyl]-3-carboxymethyl-2-pyrrolidinone] | 0.06 | – | – | no animals died | –
N=C(N)c1ccc(NC(=O)c2cccn(C[C@@H]3C[C@@H](CC(=O)O)C(=O)N3CCCc3ccccc3)c2=O)cc1 [4(18)] | – | 0.055 | – | no animals died | 0.43

Continued, in another order:

EC50 [1, 5] [µM] | IC50 [2] [µM] | SMILES | inhibits the collagen-induced thrombocyte aggregation ex vivo for (duration) [3] | animals died [4] | EC50 ([1]; Homo sapiens, Platelet) [µM]
5.5 | 0.77 | N=C(N)c1ccc2c(c1)CCN(C(=O)NCC[C@@H]1C[C@@H](CC(=O)O)C(=O)N1CCCc1ccccc1)CC2 [Example 4(8), (3S,5S)-5-[2-[(7-amidino-1H-2,3,4,5-tetrahydro-3-benzazepin-3-yl)carbonylamino]ethyl]-3-carboxymethyl-1-(3-phenylpropyl)-2-pyrrolidinone×2 H2 O] | – | – | –
0.16 | 0.031 | N=C(N)c1ccc(-c2ccc(OC[C@@H]3C[C@@H](CC(=O)O)C(=O)N3c3cccnc3)cc2)cc1 [Example 4(6), (3S,5S)-5-[(4'-amidino-4-biphenylyl)oxymethyl]-3-carboxymethyl-1-(3-pyridyl)-2-pyrrolidinone×1.2 H2 O] | – | – | –
0.59 | 0.059 | N=C(N)c1ccc(-c2ccc(NC[C@@H]3C[C@@H](CC(=O)O)C(=O)N3)nn2)cc1 [Example 4(13), (3S,5S)-5-[[6-(4-amidinophenyl)-3-pyridazinyl]aminomethyl]-3-carboxymethyl-2-pyrrolidinone] | – | – | –
0.89 | 0.27 | N=C(N)N1Cc2ccc(C(=O)NCC[C@@H]3C[C@@H](CC(=O)O)C(=O)N3CCCc3ccccc3)cc2C1 [Example 11, (3S,5S)-5-[2-[(2-amidino-5-isoindolinyl)carbonylamino]ethyl]-3-carboxymethyl-1-(3-phenylpropyl)-2-pyrrolidinone] | – | – | –
0.1 | 0.032 | N=C(N)c1ccc(-c2ccc(OC[C@@H]3C[C@@H](CC(=O)O)C(=O)N3CCCc3ccccc3)nn2)cc1 [Example 4(11)] | – | – | –
3.8 | 0.57 | O=C(O)C[C@@H]1C[C@@H](CCNC(=O)c2ccc(C3CCNCC3)cc2)N(CCCc2ccccc2)C1=O [Example 12(6), (3S,5S)-3-carboxymethyl-1-(3-phenylpropyl)-5-[2-[[4-(4-piperidinyl)phenyl]carbonylamino]ethyl]-2-pyrrolidinone×0.75 H2 O] | – | – | –
3 | 0.59 | Cn1nc(-c2ccc(C(=N)N)cc2)cc(C(=O)NC[C@@H]2C[C@@H](CC(=O)O)C(=O)N2)c1=O [Example 4(15), (3S,5S)-5-[[[6-(4-amidinophenyl)-2-methyl-3(2H)-pyridazinon-4-yl]carbonyl]aminomethyl]-3-carboxymethyl-2-pyrrolidinone] | – | – | –
2.5 | 13 | COC(=O)C[C@@H]1C[C@@H](COc2ccc(-c3ccc(C(=N)N)cc3)cc2)N(c2cccnc2)C1=O [Example 6(3), (3S,5S)-5-[(4'-amidino-4-biphenylyl)oxymethyl]-3-[(methoxycarbonyl)methyl]-1-(3-pyridyl)-2-pyrrolidinone×1.2 HCl×1 H2 O] | – | – | –
